The target in series [1] is T1, Polyunsaturated fatty acid 5-lipoxygenase (Homo sapiens, UniProt P09917).
T1 sequence (P09917 whole entry): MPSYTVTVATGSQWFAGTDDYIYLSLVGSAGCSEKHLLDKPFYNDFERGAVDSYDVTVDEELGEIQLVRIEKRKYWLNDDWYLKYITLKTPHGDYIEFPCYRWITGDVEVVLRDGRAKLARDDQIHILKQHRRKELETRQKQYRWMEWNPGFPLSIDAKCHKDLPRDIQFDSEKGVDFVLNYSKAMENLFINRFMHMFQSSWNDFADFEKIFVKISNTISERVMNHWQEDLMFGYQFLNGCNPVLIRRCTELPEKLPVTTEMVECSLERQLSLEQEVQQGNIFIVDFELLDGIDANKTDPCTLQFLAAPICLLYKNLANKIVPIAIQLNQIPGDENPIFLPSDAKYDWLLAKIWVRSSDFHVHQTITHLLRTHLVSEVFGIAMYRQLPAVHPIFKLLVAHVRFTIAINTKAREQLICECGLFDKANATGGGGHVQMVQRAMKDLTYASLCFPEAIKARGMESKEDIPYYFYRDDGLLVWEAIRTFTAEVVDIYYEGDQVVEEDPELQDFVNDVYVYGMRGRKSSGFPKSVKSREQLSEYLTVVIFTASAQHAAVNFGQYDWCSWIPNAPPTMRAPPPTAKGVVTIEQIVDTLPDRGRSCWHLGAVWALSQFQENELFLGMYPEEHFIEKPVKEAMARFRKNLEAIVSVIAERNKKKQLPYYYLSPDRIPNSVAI
Description: Inhibition of 5-LOX (unknown orgin) using arachidonic acid as substrate incubated for 10 mins by colorimetric assay.

The target of series [2] is Albumin (Homo sapiens, UniProt P02768). Description: Binding affinity to human serum albumin in phosphate buffer at pH 7.4 incubated at 298 K.
In series [3] the target is T2, Polyunsaturated fatty acid 5-lipoxygenase (Homo sapiens) (UniProt P09917).
T2 sequence (whole entry): T1 sequence (P09917 whole entry)
Description: Binding affinity to 5-LOX (unknown origin).

Series [4] deals with Panel NCI-60 (60 carcinoma cell lines). Description: Cytotoxicity against human Panel NCI-60 (60 carcinoma cell lines) cells assessed as reduction in cell viability. Format: functional.
The nature of series [5]: Stability of compound in human plasma assessed as drug degradation at 37 degC measured after 90 mins by LC-MS analysis. The note with it: read-out: Drug degradation. Format: ADME, cell-free.
Series [6] can be described thus: Solubility of the compound in PBS buffer by UV spectrum based solubility assay. Format: physicochemical.
The nature of series [7]: Half life in human liver microsome by LC-MS/MS analysis. The settings on record: liver microsomes. Format: ADME.
Series [8] has as its target T2, Polyunsaturated fatty acid 5-lipoxygenase (Homo sapiens). Description: Competitive inhibition of 5-LOX (unknown origin) using arachidonic acid as substrate by Michaelis-Menten equation based kinetic analysis.

SMILES strings stand for the structures. Converted amounts (≈) assume the structure as drawn. The source made the active and inactive calls. The calls are words filed in the database; no cut-off is given here.

One may read the IC50 as the midpoint of a concentration-inhibition curve. Low values mean greater potency, high ones weaker potency. As a reminder, the solubility is the dissolved amount per volume that the medium holds. A higher solubility goes with a readily soluble substance. Usually half-life stands for how long it takes for the measured level to halve. High values mean slow decline, low ones rapid decline.

Sequence of Albumin (P02768 whole entry): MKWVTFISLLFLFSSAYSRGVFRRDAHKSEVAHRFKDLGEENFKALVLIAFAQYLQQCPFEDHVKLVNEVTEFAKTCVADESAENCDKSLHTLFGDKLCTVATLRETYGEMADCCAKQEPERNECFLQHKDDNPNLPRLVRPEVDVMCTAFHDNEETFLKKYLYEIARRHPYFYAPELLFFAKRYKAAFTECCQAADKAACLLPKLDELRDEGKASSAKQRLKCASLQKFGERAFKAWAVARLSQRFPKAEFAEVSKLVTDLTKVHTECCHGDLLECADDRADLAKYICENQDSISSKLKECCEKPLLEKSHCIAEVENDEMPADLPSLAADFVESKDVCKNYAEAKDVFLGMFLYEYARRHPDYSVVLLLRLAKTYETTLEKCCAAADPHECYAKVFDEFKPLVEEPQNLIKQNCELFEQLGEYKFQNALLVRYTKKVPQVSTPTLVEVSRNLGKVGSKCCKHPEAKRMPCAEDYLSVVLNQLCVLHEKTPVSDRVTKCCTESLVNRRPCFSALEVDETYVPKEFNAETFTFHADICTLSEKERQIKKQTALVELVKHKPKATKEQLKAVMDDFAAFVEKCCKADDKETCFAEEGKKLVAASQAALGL

In series [1], `C#CCn1cc(Cc2c(O)n(-c3c(Cl)cccc3Cl)c3ccccc23)c2ccccc21` yielded an IC50 of more than 10 µM. In addition, the values for the K in series [2] and in series [3] were 1.1 10^4/M and 3.1 10^8/M, respectively. Also, the LC50 (concentration killing 50% of cells) in series [4] was more than 100 µM. Besides, the metabolised at 1.5 h in series [5] stood at 4%.

In series [1], `C#CCn1cccc1CC1c2ccccc2N(c2c(Cl)cccc2Cl)C1O` (stereo not drawn) returned an IC50 of 0.25 µM. Further, the K in series [2] was 4.1 10^4/M; in series [3], 0.9 10^8/M. In addition, the LC50 (concentration killing 50% of cells) in series [4] is more than 100 µM. In series [5], the metabolised at 1.5 h worked out at 4%.

`CCOC(=O)Cn1cccc1CC1c2ccccc2N(c2c(Cl)cccc2Cl)C1O` (stereo not drawn): the midpoint of inhibition in series [1], the IC50, lay at 1.31 µM. In addition, the K in series [2] was 1.4 10^4/M; in series [3], 1.7 10^8/M. For the same compound, the LC50 (concentration killing 50% of cells) in series [4] is more than 100 µM. The metabolised at 1.5 h in series [5] was 4%.

`COc1cc(CC2C(=O)N(c3c(Cl)cccc3Cl)c3ccccc32)cc(OC)c1OC` (stereo not drawn) displayed an IC50 in series [1] of 0.26 µM. Further, the K in series [2] was 6.9 10^4/M; in series [3], 0.9 10^8/M. Besides, the LC50 (concentration killing 50% of cells) in series [4] is more than 100 µM. Also, the metabolised at 1.5 h in series [5] amounted to 4%.

The compound `C=CCn1cc(Cc2c(O)n(-c3c(Cl)cccc3Cl)c3ccccc23)c2ccccc21` showed an IC50 in series [1] of 0.07 µM. The K was 7.6 10^2/M in series [2] and 1.8 10^8/M in series [3]. In addition, the LC50 (concentration killing 50% of cells) in series [4] is more than 100 µM. Further, the metabolised at 1.5 h in series [5] amounted to 4%.

In series [1], `O=C1C(Cc2c[nH]c3ccccc23)c2ccccc2N1c1c(Cl)cccc1Cl` (stereo not drawn) had an IC50 of 0.31 µM. Moreover, the K in series [2] is 1.1 10^3/M; in series [3] it was 4.2 10^8/M. Moreover, in series [4], the LC50 (concentration killing 50% of cells) is more than 100 µM. In addition, the metabolised at 1.5 h in series [5] amounted to 4%.

For `O=C(O)Cn1cccc1Cc1c(O)n(-c2c(Cl)cccc2Cl)c2ccccc12`, the IC50 in series [1] was 0.43 µM. The K in series [2] was 1.4 10^4/M; in series [3] it was 4.9 10^8/M. Moreover, the LC50 (concentration killing 50% of cells) in series [4] is more than 100 µM. In addition, the metabolised at 1.5 h in series [5] came out at 4%.

In the case of `O=C1C(Cc2cccn2Cc2ccccc2)c2ccccc2N1c1c(Cl)cccc1Cl` (stereo not drawn), the IC50 in series [1] amounted to 0.49 µM. Moreover, the values for the K in series [2] and in series [3] were 1.2 10^4/M and 2.4 10^8/M, respectively. Moreover, the LC50 (concentration killing 50% of cells) in series [4] was more than 100 µM. For the same compound, the metabolised at 1.5 h in series [5] came out at 4%.

In series [1], `O=C(O)Cn1cc(Cc2c(O)n(-c3c(Cl)cccc3Cl)c3ccccc23)c2ccccc21` gave an IC50 of 1.23 µM. The K was 5.2 10^4/M in series [2] and 2.5 10^8/M in series [3]. In addition, in series [4], the LC50 (concentration killing 50% of cells) is more than 100 µM. For the same compound, in series [5], the metabolised at 1.5 h amounted to 4%.

`C=CCn1cccc1CC1C(=O)N(c2c(Cl)cccc2Cl)c2ccccc21` (stereo not drawn) registered an IC50 in series [1] of 1.77 µM. The values for the K in series [2] and in series [3] were 1.7 10^4/M and 1.4 10^8/M, respectively. Moreover, the LC50 (concentration killing 50% of cells) in series [4] is more than 100 µM. For the same compound, the metabolised at 1.5 h in series [5] came to 4%.

With `CCOC(=O)Cn1cc(Cc2c(O)n(-c3c(Cl)cccc3Cl)c3ccccc23)c2ccccc21`, it took 0.63 µM to reach half-maximal inhibition in series [1] (IC50). Besides, the K in series [2] is 2.7 10^3/M; in series [3] it was 4.5 10^8/M. Also, in series [4], the LC50 (concentration killing 50% of cells) is more than 100 µM. In series [5], the metabolised at 1.5 h came out at 4%.

As to `Oc1c(Cc2cn(Cc3ccccc3)c3ccccc23)c2ccccc2n1-c1c(Cl)cccc1Cl`, in series [1], the midpoint of inhibition, the IC50, lay at 0.1 µM. For the same compound, the results for the K in series [2] and in series [3] were 1.4 10^4/M and 0.8 10^8/M, respectively. The LC50 (concentration killing 50% of cells) in series [4] is more than 100 µM. Also, the metabolised at 1.5 h in series [5] is 4%.

In turn, `O=C1C(Cc2ccc[nH]2)c2ccccc2N1c1c(Cl)cccc1Cl` (stereo not drawn) registered a solubility in series [6] of 26 µM (≈ 9.29 µg/mL). In addition, in series [1], inhibition was half-maximal at 0.03 µM (IC50). Besides, the K in series [2] is 3.8 10^4/M; in series [3] it was 1.1 10^8/M. The LC50 (concentration killing 50% of cells) in series [4] is more than 100 µM. For the same compound, the metabolised at 1.5 h in series [5] was 4%. The compound further came in with a half-life in series [7] of 1.5 h. Further, in series [8], the inhibition result is “Active”.

These data come from ChEMBL document CHEMBL5365422 (Bioorg Med Chem Lett, 2023).
